The values that follow come from ChEMBL document CHEMBL1909046, “DrugMatrix in vitro pharmacology data”.

Structures are written as SMILES. pIC50, pKi: −log10 of the molar value.

The nature of experiment [1]: DRUGMATRIX: Sigma2 radioligand binding (ligand: [3H] Ifenprodil). Conditions: Not Active = under 50% inhibition at 10 µM; for pIC50: read-out: IC50; for pKi: read-out: Ki. The experiment is classed as cell membranes, Rattus norvegicus, Wistar, Brain, Membrane.
Experiment [2] in a line: DRUGMATRIX: Glutamate, NMDA, Agonism radioligand binding (ligand: [3H] CGP-39653). In kind it is cell membranes, Rattus norvegicus, Wistar, Cerebral cortex, Membrane. To be noted: Not Active = under 50% inhibition at 10 µM.
The target in another experiment is Acetylcholinesterase (Homo sapiens, UniProt P22303). The experiment in a line: DRUGMATRIX: Acetylcholinesterase enzyme inhibition (substrate: acetylthiocholine). The experiment is classed as cell-based, HEK293. To be noted: Not Active = under 50% inhibition at 10 µM; for IC50: hek293.
Sequence of Acetylcholinesterase (P22303 whole entry): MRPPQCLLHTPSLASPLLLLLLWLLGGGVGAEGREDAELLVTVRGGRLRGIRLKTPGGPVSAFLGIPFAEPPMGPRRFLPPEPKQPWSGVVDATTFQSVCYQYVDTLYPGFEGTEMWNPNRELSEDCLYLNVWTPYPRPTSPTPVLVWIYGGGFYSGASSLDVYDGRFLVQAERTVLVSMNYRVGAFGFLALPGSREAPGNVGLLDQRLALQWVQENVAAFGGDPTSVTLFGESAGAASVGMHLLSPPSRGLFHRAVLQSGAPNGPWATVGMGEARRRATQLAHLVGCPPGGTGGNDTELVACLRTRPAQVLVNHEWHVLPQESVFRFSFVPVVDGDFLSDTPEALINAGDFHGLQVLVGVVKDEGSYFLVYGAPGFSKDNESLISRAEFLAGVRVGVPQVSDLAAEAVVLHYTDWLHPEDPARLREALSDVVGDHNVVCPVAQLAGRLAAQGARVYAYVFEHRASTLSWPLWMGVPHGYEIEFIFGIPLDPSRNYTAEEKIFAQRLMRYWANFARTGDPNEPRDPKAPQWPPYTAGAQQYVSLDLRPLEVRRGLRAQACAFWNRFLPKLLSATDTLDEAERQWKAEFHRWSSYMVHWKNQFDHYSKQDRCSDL
A further experiment has as its target Vasopressin V1a receptor (Homo sapiens, UniProt P37288). The experiment is classed as cell membranes, Membrane. Conditions: hek293. Further: in other assays of this panel Not Active means under 50% inhibition at 10 µM.
Experiment [3] concerns the target Beta-3 adrenergic receptor (Homo sapiens, UniProt P13945). The experiment can be described thus: DRUGMATRIX: Adrenergic beta3 radioligand binding (ligand: [125I] Cyanopindolol). Conditions: Not Active = under 50% inhibition at 10 µM; for IC50: hek293; for pIC50: read-out: IC50; for pKi: read-out: Ki. The experiment is classed as cell membranes, HEK293, Membrane.

Experiment [4] has as its target T1, Alpha-2A adrenergic receptor (Homo sapiens, UniProt P08913). Further: in other assays of this panel Not Active means under 50% inhibition at 10 µM.
T1 sequence (P08913 whole entry): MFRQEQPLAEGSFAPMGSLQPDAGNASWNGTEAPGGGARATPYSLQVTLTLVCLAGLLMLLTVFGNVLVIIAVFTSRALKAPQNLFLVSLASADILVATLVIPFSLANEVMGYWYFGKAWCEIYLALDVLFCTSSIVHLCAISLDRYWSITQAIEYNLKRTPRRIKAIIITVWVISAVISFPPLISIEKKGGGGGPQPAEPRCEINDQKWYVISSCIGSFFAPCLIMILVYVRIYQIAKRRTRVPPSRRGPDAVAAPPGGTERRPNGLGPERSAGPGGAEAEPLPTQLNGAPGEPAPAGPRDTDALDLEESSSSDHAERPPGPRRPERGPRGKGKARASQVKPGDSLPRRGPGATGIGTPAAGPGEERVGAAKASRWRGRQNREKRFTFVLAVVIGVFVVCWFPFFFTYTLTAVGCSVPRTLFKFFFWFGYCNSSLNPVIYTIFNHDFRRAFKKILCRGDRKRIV
In kind it is cell membranes, Sf9, Membrane. To be noted: for IC50: sf9.

Sequence of Vasopressin V1a receptor (P37288 whole entry): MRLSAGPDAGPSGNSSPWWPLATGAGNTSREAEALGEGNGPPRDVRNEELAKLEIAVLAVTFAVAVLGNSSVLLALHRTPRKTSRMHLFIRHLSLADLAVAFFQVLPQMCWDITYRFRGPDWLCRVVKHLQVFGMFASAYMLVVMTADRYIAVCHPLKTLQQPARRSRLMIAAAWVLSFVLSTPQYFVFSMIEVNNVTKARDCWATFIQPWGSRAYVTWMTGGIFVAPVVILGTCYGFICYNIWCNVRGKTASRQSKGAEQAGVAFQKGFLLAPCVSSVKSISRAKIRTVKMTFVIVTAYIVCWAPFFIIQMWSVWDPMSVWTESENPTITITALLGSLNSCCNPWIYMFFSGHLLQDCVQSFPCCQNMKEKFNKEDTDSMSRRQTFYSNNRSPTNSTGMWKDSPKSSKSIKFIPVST
Sequence of Beta-3 adrenergic receptor (P13945 whole entry): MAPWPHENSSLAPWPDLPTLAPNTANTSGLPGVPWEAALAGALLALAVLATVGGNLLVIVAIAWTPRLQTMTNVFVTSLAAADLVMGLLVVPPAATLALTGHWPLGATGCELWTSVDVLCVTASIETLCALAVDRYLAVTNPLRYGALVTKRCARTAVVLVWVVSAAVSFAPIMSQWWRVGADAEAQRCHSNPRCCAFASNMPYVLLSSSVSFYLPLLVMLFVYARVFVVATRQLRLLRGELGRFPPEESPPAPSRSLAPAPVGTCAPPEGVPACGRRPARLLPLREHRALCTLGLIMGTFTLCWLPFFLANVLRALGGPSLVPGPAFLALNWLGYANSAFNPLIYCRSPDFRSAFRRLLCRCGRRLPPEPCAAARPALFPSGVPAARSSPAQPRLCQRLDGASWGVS

For orientation: pIC50 means −log10 of the IC50, conventionally taken in molar units. For orientation: pKi means −log10 of the Ki, conventionally taken in molar units. Consider `COc1ccc(CCN(C)CCCC(C#N)(c2ccc(OC)c(OC)c2)C(C)C)cc1OC` (configuration not stated), for which, in experiment [1], the negative logarithm of the IC50 (pIC50) was 5.55. In addition, the pKi in experiment [1] was 5.76. The IC50 entry (in experiment [2]; against Acetylcholinesterase; on Vasopressin V1a receptor; in experiment [3]) was “Not Active” in each case. The Ki entry in experiment [2] is “Not Active”.

Consider `CC(C)Cc1ccc([C@@H](C)C(=O)O)cc1` [(R)-IBUPROPHEN], for which the IC50 entry (in experiment [4]; in experiment [1]; in experiment [2]; against Acetylcholinesterase; on Vasopressin V1a receptor; in experiment [3]) was “Not Active” in each case. In addition, the Ki entry in experiment [1] and in experiment [2] was “Not Active” throughout.

In the case of `CC(C)NCC(O)c1ccc(O)c(O)c1` (configuration not stated) [ISOPROTERENOL], the IC50 result (in experiment [4]; in experiment [1]; in experiment [2]; against Acetylcholinesterase; on Vasopressin V1a receptor; in experiment [3]) was “Not Active” each time. Besides, the Ki result in experiment [1] and in experiment [2] was “Not Active” each time.

For `NC(=O)N1C(=O)/C(=C(\O)c2cccs2)c2cc(Cl)ccc21` [TENIDAP], the IC50 result (in experiment [4]; in experiment [1]; in experiment [2]; against Acetylcholinesterase; against Vasopressin V1a receptor; in experiment [3]) was “Not Active” each time. The Ki result in experiment [1] and in experiment [2] was “Not Active” in each case.

`NC1CCN(c2nc3c(cc2F)c(=O)c(C(=O)O)cn3-c2ccc(F)cc2F)C1` (configuration not stated) [TOSUFLOXACIN]: the IC50 result (in experiment [4]; in experiment [1]; in experiment [2]; against Acetylcholinesterase; against Vasopressin V1a receptor; in experiment [3]) was “Not Active” each time. The Ki entry in experiment [1] and in experiment [2] was “Not Active” throughout.

For the molecule `N#Cc1ccc(C(c2ccc(C#N)cc2)n2cncn2)cc1` [LETROZOLE], the IC50 result (in experiment [4]; in experiment [1]; in experiment [2]; at Acetylcholinesterase; at Vasopressin V1a receptor; in experiment [3]) was “Not Active” in each case. The Ki entry in experiment [1] and in experiment [2] was “Not Active” each time.

With `CCN(CC)CCOc1ccc(/C(=C(/Cl)c2ccccc2)c2ccccc2)cc1` [ENCLOMIPHENE], the IC50 result against Acetylcholinesterase and at Vasopressin V1a receptor was “Not Active” throughout. Also, the pIC50 in experiment [3] is 5.25. The pKi in experiment [3] is 5.37.

`CN[C@H]1CC[C@@H](c2ccc(Cl)c(Cl)c2)c2ccccc21` [SERTRALINE]: the IC50 entry (at Acetylcholinesterase; against Vasopressin V1a receptor; in experiment [3]) was “Not Active” throughout.

On to `CN(C)CCOC(c1ccccc1)c1ccccc1` [DIPHENHYDRAMINE], for which the IC50 result (in experiment [4]; against Acetylcholinesterase; at Vasopressin V1a receptor; in experiment [3]) was “Not Active” in each case.

With `Clc1ccccc1CN1CCc2sccc2C1` [TICLOPIDINE], the pIC50 in experiment [1] was 5.49. The negative-log Ki (pKi) in experiment [1] was 5.70. The IC50 entry (in experiment [2]; on Acetylcholinesterase; at Vasopressin V1a receptor; in experiment [3]) was “Not Active” in each case. The Ki result in experiment [2] is listed as “Not Active”.

With `Fc1ccc(C(c2ccc(F)cc2)N2CCN(C/C=C/c3ccccc3)CC2)cc1` [FLUNARIZINE], the negative logarithm of the IC50 (pIC50) in experiment [4] (read-out: IC50) was 6.24. In addition, the negative logarithm of the Ki (pKi) in experiment [4] (read-out: Ki) was 6.66. For the same molecule, the IC50 entry (against Acetylcholinesterase; against Vasopressin V1a receptor; in experiment [3]) was “Not Active” each time.

Regarding `CNCCC(Oc1ccc(C(F)(F)F)cc1)c1ccccc1` (configuration not stated) [FLUOXETINE], the IC50 result (in experiment [4]; at Acetylcholinesterase; on Vasopressin V1a receptor; in experiment [3]) was “Not Active” each time.

For `Cc1ccc(NC(=O)c2ccc(CN3CCN(C)CC3)cc2)cc1Nc1nccc(-c2cccnc2)n1` [IMATINIB], the IC50 result (in experiment [4]; against Acetylcholinesterase; against Vasopressin V1a receptor; in experiment [3]) was “Not Active” each time.

As for `Clc1ccc(COC(Cn2ccnc2)c2ccc(Cl)cc2Cl)cc1` (configuration not stated) [ECONAZOLE], the negative logarithm of the IC50 (pIC50) on Acetylcholinesterase (read-out: IC50) was 4.86. Also, the IC50 result against Vasopressin V1a receptor is recorded as “Not Active”. In experiment [3], the pIC50 was 5.21 and the negative logarithm of the Ki (pKi) is 5.34.
